# “Also recorded” adds a separate entry of the source.
# Columns and labels:
# human liver microsomes = assay: Metabolization on human liver microsomes; assay type: in vitro ADME; details: 10 μM, 1 mg/ml protein, 120 min, n=3
# Procedure: (§1) I) Human liver microsomes: Pantoprazole racemate and the (+)- and (−)-enantiomers (10 μM each) were incubated with human liver microsomes (source: TEBU, incubation in 1 mg/ml protein, 100 mM Tris-HCl, pH 7.4, 1 mM NADPH2). Reaction was terminated after 30 and 120 minutes by liquid nitrogen, the parent compound was detected by HPLC (10 mM KH2PO4, pH 7.4, acetonitril gradient 20-48%).
# Recombinant CYP 2C19 = biological target: T1, Recombinant CYP 2C19 (Homo sapiens, UniProt P33261); assay: Metabolization on recombinant CYP 2C19; assay type: in vitro ADME; details: 10 μM, 0.1 mg/ml protein, 120 min, n=3
# T1 construct: purchased GENTEST
# Procedure: as §1
# II) Recombinant CYP 2C19 (source: GENTEST); incubation method as described under I) (in presence of 0.1 mg/ml protein).
# [1] = Hygroscopicity / water content of the salts; assay type: physicochemical; details: depending on drying conditions and atmospheric humidity
# Procedure: Drying was carried out in a vacuum drying cabinet at <50 mbar and 40-45° C. [It is also possible to dispense with drying and to use the moist product (having an MIBK content of 10-20%) directly for step B].
# [2] = Storage stability of the solid salts at elevated temperature
# [3] = test system: pentagastrin-stimulated acid output in the Ghosh-Schild rat; assay: Inhibition of acid output in the Ghosh-Schild rat after i.v. administration; assay type: in vivo; details: 1 μmol/kg i.v. 3 hours prior to pentagastrin stimulation; 3 to 7.5 hours after administration; FIG. 3; listed as (−)-enantiomer, Dihydrate
# Procedure: Female Sprague Dawley CD rats (190-210 g body weight) were anaesthetised with 1.5 g/kg i.m. of urethane, in 5 ml/kg physiologic saline. The trachea was intubated and both, the left external jugular vein (for drug administration) and left femoral vein (for pentagastrin infusion) were cannulated. An esophagus/cardia-cannula (diameter: 1.7 mm) was inserted transorally, and a pylorus-cannula (diameter: 2.6 mm) was inserted through the duodenum, and both were secured with a ligature. The pyloric catheter was led through the right abdominal wall. Body temperature was maintained at 37.0±0.2° C. by means of infrared radiation and electric cushion (automatic infinite control via rectal temperature probe). After thorough flushing (about 50-100 ml), the stomach was continuously perfused with 0.5 ml/min of physiologic saline (37° C.). In the effluate, collected at 15 min intervals, the pH as well as the acid output were determined, the latter by titration to pH 7 with freshly prepared 0.01 N NaOH.
# Gastric secretion was stimulated by a continuous intravenous infusion (left femoral vein) of 1 μg/kg×min pentagastrin (in 1.6 ml/h physiologic saline) starting after determination of two basal values of acid secretion, i.e., 30 min after commencement of stomach perfusion. See horizontal bars in FIGS. 1 and 2 for pentagastrin-infusion. […]
# [4] = Wettability, dissolution rate and solubility compared to racemic pantoprazole magnesium dihydrate
# T1 sequence (P33261 whole entry): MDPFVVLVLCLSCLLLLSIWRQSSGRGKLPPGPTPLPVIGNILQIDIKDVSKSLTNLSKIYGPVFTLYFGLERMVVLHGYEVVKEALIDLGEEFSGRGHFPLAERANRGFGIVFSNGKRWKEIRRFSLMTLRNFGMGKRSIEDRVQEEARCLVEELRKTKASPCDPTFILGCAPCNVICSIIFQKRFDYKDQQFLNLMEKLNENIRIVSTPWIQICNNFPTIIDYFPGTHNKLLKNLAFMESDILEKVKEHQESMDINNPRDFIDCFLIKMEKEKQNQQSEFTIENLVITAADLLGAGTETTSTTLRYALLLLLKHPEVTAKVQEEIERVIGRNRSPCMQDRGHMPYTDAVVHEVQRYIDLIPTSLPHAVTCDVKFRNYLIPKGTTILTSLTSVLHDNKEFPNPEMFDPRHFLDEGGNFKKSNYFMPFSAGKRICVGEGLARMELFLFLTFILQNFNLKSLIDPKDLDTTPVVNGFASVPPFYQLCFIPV
Molecule,metabolized on human microsomes (mean) (human liver microsomes) [%],metabolized on CYP2C19 (mean) (Recombinant CYP 2C19) [%],water content [1],hygroscopicity (absorption of water) [1],also measured
"COc1ccnc(C[S+]([O-])c2nc3ccc(OC(F)F)cc3[nH]2)c1OC (racemic) [racemate, 5-difluoromethoxy-2-[(3,4-dimethoxy-2-pyridinyl)methylsulphinyl]-1H-benzimidazole]",44,67,–,–,–
"COc1ccnc(C[S+]([O-])c2nc3ccc(OC(F)F)cc3[nH]2)c1OC (single isomer, unassigned; (+)) [(+) enantiomer]",44,64,–,–,–
"COc1ccnc(C[S+]([O-])c2nc3cc(OC(F)F)ccc3[nH]2)c1OC (single isomer, unassigned; (-)) [(−)-Pantoprazole, (−)-[5-(difluoromethoxy)]-2-[(3,4-dimethoxy-2-pyridinyl)methylsulphinyl]-1H-benzimidazole]",26,54,–,–,–
"COc1ccnc(C[S+]([O-])c2nc3cc(OC(F)F)ccc3[n-]2)c1OC.COc1ccnc(C[S+]([O-])c2nc3cc(OC(F)F)ccc3[n-]2)c1OC.[Ca+2] (single isomer, unassigned; (-)) [(−)-pantoprazole calcium]",–,–,4-8%,–,–
"COc1ccnc(C[S+]([O-])c2nc3cc(OC(F)F)ccc3[n-]2)c1OC.[Na+] (single isomer, unassigned; (-)) [(−)-pantoprazole sodium]",–,–,–,absorbs water,"hygroscopicity (absorption of water) ([1]; listed as (−)-Pantoprazole-Na): hygroscopic; purity (according to HPLC) after storage ([2]; storage at 60-70° C., atmospheric conditions, starting purity 99.5%): 96-97%"
"Magnesium (−)-bis{[5-(difluoromethoxy)]-2-[(3,4-dimethoxy-2-pyridinyl)methylsulphinyl]-1H-benzimidazolide} Dihydrate [(−)-pantoprazole magnesium dihydrate]",–,–,about 4.4%,non-hygroscopic,"inhibition of acid secretion, Experiment 2, compared to the (+)-enantiomer [3]: significantly superior; also recorded: significantly more effective; wettability compared to racemic pantoprazole magnesium dihydrate [4]: better wettability; dissolution rate compared to racemic pantoprazole magnesium dihydrate ([4]; pH 7-7.4): considerably higher dissolution rate; solubility relative to racemic pantoprazole magnesium dihydrate ([4]; pH 10): about tenfold; stability (discolouration, decomposition) on storage ([2]; 70° C., one week): completely stable; sum of by-products on storage ([2]; storage under atmospheric conditions, 60-70° C.): remains virtually constant"

# From US7629361B2, “Salt of (S)-pantoprazole and its hydrates” (NYCOMED GmbH, priority 2002, dated 2009)
